Measurements published in US8193200B2, “Antagonists of A2B adenosine receptors for treatment of inflammatory bowel disease” (University of Virginia Patent Foundation, priority 2007, dated 2012).

Tests used:
[1] = tested on: IL-10-/- mice with piroxicam induced colitis; assay: Piroxicam induced colitis in IL-10-/- mice: body weight, histological score, colon length; format: in vivo, mouse
Text: IL-10^−/− mice spontaneously develop a chronic, T-cell mediated, transmural colitis that shares many features with human Crohn's disease. Based on this model, there have been several clinical trials using IL-10 treatment for IBD in human patients 13 However, due to the inconsistency in the development of spontaneous colitis in IL-10^−/− mice, Berg and his colleagues have described rapid development of colitis in IL-10^−/− mice treated with a nonsteroidal anti-inflammatory drug piroxicam (NSAID)^9. Accordingly, mice were treated with piroxicam, 200 mg/kg diet, for two weeks to induce colitis. Mice were administered ATL-801 for a week prior to treatment with piroxicam, and ATL-801 treatment was continued during piroxicam administration. Two weeks after the induction of colitis, mice were euthanized, and colonic tissue was analyzed.
(§1) Assessment of body weights, stool consistency, and the presence of occult/gross blood by a guaic test (Hemoccult Sensa; Beckman Coulter, Fullerton, Calif.) were performed daily for each mouse. Colitis was quantified with a clinical and histological score, as described by Cooper, et. al. Clinical score was based on weight loss, stool consistency, and fecal blood (score range 0-12). Histological scoring was performed based on three variables, extent of inflammatory infiltrate, mucosal ulcers and severity of crypt (score range 0-11). IL-10^−/− mouse colon histological scoring (ranging from 0 to 4) was performed as described by Berg, et. al. to assess intestinal lesions and their severity.

[2] = tested on: T84 cells; assay: Flagellin-induced IL-8 secretion in T84 cells (ELISA); format: cell-based
[3] = tested on: myeloperoxidase (MPO) activity, neutrophil infiltration into colon; assay: Myeloperoxidase assay in colon, DSS colitis; format: in vivo, mouse; conditions: DSS 3% 6 days, ATL-801 10 mg/kg in diet
Procedure: Neutrophil infiltration into colon was quantified by measuring myeloperoxidase (MPO) activity as described previously. One unit of MPO activity was defined as the amount that degraded 1 μmol of […] per minute at 25° C. The results were expressed as absorbance per μg of protein.

[4] = tested on: A2b receptor expression; assay: Western blot of A2b receptor in colonic lysates, DSS model; format: in vivo, mouse; conditions: baseline and after DSS treatment
Text: Colonic tissue was homogenized and cell lysates were subjected to immunoblotting using anti-A2b receptor antibody (1:1000). β-tubulin was used as loading control. Blot shown is representative of 4 animals per condition.

[5] = tested on: IL-6 and KC secretion; assay: IL-6 and KC ELISA in colon organ culture supernatants, IL-10-/- model; format: in vivo, mouse
Procedure: In the DSS-model proinflammatory cytokines were measured by real time PCR. Total RNA was extracted from DSS treated, DSS+ATL-801 and control colonic tissue using the TRizol reagent. After quantification, a reverse transcription (RT) reaction was performed with 2 μg of each sample and oligo-dT primer, using the SuperScript First strand synthesis system for RT-PCR (Invitrogen, CA). The real-time iCycler sequence detection system (Bio-Rad) was used for the real-time RT-PCR. Briefly, 3 ng of reverse transcribed cDNA, 500 nM of gene-specific primers and the iQ SYBR Green Supermix (Biorad, Hercules, Calif.) were amplified at 50° C. for 2 min and 95° C. for 10 min, followed by 40 cycles of 95° C. for 15 s and 60° C. for 1 min. The 36B4 expression levels were used as reference, and fold-induction was calculated using a standard curve. For graphical representation of quantitative PCR data, raw cycle threshold values (Ct values) obtained for treated mice were deducted from the Ct value obtained for internal 36B4 transcript levels, using the Ct method as follows: ΔΔCT=(Ct Target−Ct 36B4)treatment−(Ct Target−Ct 36B4) no treatment, and the final data were derived from 2^−ΔΔCT. Primers used: IL-6 sense 5′-ACAAGTCGGAGGCTTAATTACACAT-3′ (SEQ ID NO:1) antisense 5′-TTGCCATTGCACAACTCTTTTC-3′ (SEQ ID NO:2), MIP-2 sense 5AGT GAA CTG CGC TGT CAA TGC-3′ (SEQ ID NO:3) antisense 5′ AGGCAAACTTTTTGACCGCC 3′ (SEQ ID NO:4). In IL-10−/− model proinflammatory cytokines were measured by ELISA in organ cultures. Colon organ cultures were prepared from IL-10^−/− mice with and with out ATL-801 along with piroxicam. Colons were dissected from mice and flushed with cold PBS to remove fecal matter. Each colon was cut in to 1 cm length and washed in HBSS with pencillin/streptomycin and cultured in serum free RPMI-1640 supplemented with penicillin and streptomycin. […] Supernatants were harvested after 24 hours, centrifuged and stored at −80° C. before IL-6 and keratinocyte derived chemokine, KC levels were measured by ELISA. […] IL-8 was measured in the supernatants by ELISA.

[6] = tested on: C57BL/6 mice with DSS-induced colitis; assay: DSS-induced colitis: clinical and histological scoring, colon weight and length; format: in vivo, mouse; conditions: for Total Lesion Score (histological score): score range 0-11, DSS 9.1 ± 2.1
Procedure: Colitis was induced in male C57BL/6 mice by oral administration of DSS (molecular wt. 50000; ICN Biomedicals, Aurora, Ohio) at 3% (wt/vol) in tap water ad libitum for 6 days. Age-matched male wild-type C57BL6 mice receiving tap water served as controls. Mice were observed daily and evaluated for changes in body weight and development of clinical symptoms. Mice were given ATL-801 10 mg/Kg diet approximately 20 μg/day/mice) during the administration of DSS.
as §1

**Q.** `CCCn1c(=O)n(C2CC2)c(=O)c2[nH]c(-c3ccc(N(CC)C(=O)c4cccnc4)nc3)nc21` [ATL-801] was tested. Which “histology, ATL-801 alone” value ([1]; IL-10-/- mice treated with ATL-801 alone (data not shown)) did it give?
**A.** Its value is “normal histology”.

**Q.** What about the colon length ([1]; IL-10-/- mice, ATL-801+piroxicam, piroxicam 7.0±0.25 cm) of the same compound?
**A.** Its colon length is 8.4±0.23 cm.

**Q.** What about the mean histological score ([1]; IL-10-/- mice, piroxicam + ATL-801, score 0 to 4, piroxicam 2.8±1.0) of the same compound?
**A.** Its mean histological score is 1.3±0.3.

**Q.** And the “body weight change (Δ)” value ([1]; IL-10-/- mice, piroxicam+ATL-801 10 mg/Kg diet, FIG. 8A percent body weight change, piroxicam Δ−2.05±0.7)?
**A.** The value was “+0.2±0.5”.

**Q.** What about the “inhibition of flagellin-induced IL-8 secretion” value ([2]; ATL-801 100 μM 30 min, then flagellin 100 ng/ml 5 hours) of the same compound?
**A.** Its value is 60%.

**Q.** And the IL-8 in media, Flagellin+ATL-801 ([2]; ATL-801 100 μM, flagellin 100 ng/ml 5 h, control 206±18.5, flagellin 1126)?
**A.** Its IL-8 in media, Flagellin+ATL-801 is 769 ± 13.6 pg/mL.

**Q.** And the IL-8 in media, ATL-801 alone ([2]; ATL-801 100 μM, no flagellin, control 206±18.5)?
**A.** The IL-8 in media, ATL-801 alone was 101 ± 34.6 pg/mL.

**Q.** And the “MPO activity, DSS alone relative to antagonist and DSS” value [3]?
**A.** The value was 5 fold.

**Q.** And the “effect on A2b receptor expression (Western blot)” value [4]?
**A.** The value was “affected neither baseline level of A2b receptor nor DSS-induced increase in A2b receptor expression”.

**Q.** And the “effect of ATL-801 alone on IL-6 or IL-8 levels” value ([5]; ATL-801 alone (data not shown))?
**A.** The value was “no effect”.

**Q.** What about the “IL-6 levels in colon culture supernatant” value ([5]; IL-10-/- mice, piroxicam + ATL-801, 24 h culture, piroxicam alone 1.9±0.3, untreated 0.7±0.1) of the same compound?
**A.** The value was 0.46 ± 0.1 ng/mL.

**Q.** What about the “KC secretion in colon culture supernatant” value ([5]; IL-10-/- mice, piroxicam+ATL-801, piroxicam alone 5.6±0.6) of the same compound?
**A.** Its value is 3.7 ± 0.8 ng/mL.

**Q.** What about the “Ulceration (histological assessment)” value ([6]; 3% DSS 6 days + ATL 10 mg/Kg, DSS 2.6 ± 0.6) of the same compound?
**A.** Its value is 1.0 ± 1.

**Q.** What about the “Crypt Damage (histological assessment)” value ([6]; 3% DSS 6 days + ATL 10 mg/Kg, DSS 2.8 ± 1.5) of the same compound?
**A.** The value was 1.9 ± 0.6.

**Q.** And the “Inflammation (histological assessment)” value ([6]; 3% DSS 6 days + ATL 10 mg/Kg, DSS 3.7 ± 0.2)?
**A.** Its value is 1.2 ± 0.2.

**Q.** And the “Total Lesion Score (histological score)” value ([6]; 3% DSS 6 days + ATL 10 mg/Kg)?
**A.** The value was 4.1 ± 1.8.

**Q.** And the “Total Lesion Score (histological score)” value ([6]; 3% DSS 6 days + ATL 10 mg/Kg, listed as antagonist)?
**A.** Its value is 4.1±1.8.

**Q.** What about the “clinical score (clinical disease activity score)” value ([6]; DSS 3% 6 days + ATL-801 10 mg/Kg in diet, score range 0-12, DSS alone 9.4±1.1) of the same compound?
**A.** Its value is 4.4±1.5.

**Q.** What about the colon length ([6]; DSS 6 days + antagonist 10 mg/Kg, DSS alone 4.5±0.26 cm) of the same compound?
**A.** Its colon length is 6.04±0.16 cm.

**Q.** And the colon weight ([6]; DSS + A2b antagonist, colon with solid stool pellets, DSS alone 0.26±0.03 g)?
**A.** The colon weight was 0.48 ± 0.03 g.

**Q.** What about the stool consistency ([6]; DSS + A2b receptor antagonist, DSS-fed mice had watery diarrhea) of the same compound?
**A.** The stool consistency was “solid stools”.

**Q.** What about the “colon length, group not administered DSS” value ([6]; antagonist without DSS, vehicle 6.5±0.25) of the same compound?
**A.** Its value is 7.5 cm.

**Q.** What about the “adverse effects on clinical score, ATL-801 alone” value ([6]; mice given ATL-801 alone, no DSS) of the same compound?
**A.** The value was “did not show any adverse affects on clinical score”.

**Q.** And the “histological signs of inflammation, water control group receiving antagonist” value ([6]; no DSS)?
**A.** The value was “not detected”.
